Measurements reported in patent US6855730B2, “3-methylidenyl-2-indolinone modulators of protein kinase” (Sugen, Inc., priority 1998, dated 2005).

Molecular target: T1, chimeric receptor containing the EGFR extracellular domain and intracellular HER2 kinase domain (Homo sapiens, UniProt P04626)
T1 construct: fused on or other part: EGFR ectodomain + HER2 intracellular part, ATP-site indolinones: HER2's kinase
Test: EGF Receptor-HER2 chimeric receptor assay in whole cells (ELISA)
Assay type: cell-based
Settings: read-out: HER-2 kinase IC50
Outline: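 NIH3T3 cells overexpressing EGFR-extracellular/HER2-kinase chimera, seeded in 0.5% serum for ~40 h, were pretreated with compound (1% final DMSO) 2 h at 37 °C, then stimulated with 100 nM EGF for 5 min. Lysates captured on anti-EGFR plates; phosphotyrosine detected by anti-Ptyr/HRP ELISA at 410 nm as percent inhibition.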

T1 sequence (P04626 720-1255 limits assumed, change not shown): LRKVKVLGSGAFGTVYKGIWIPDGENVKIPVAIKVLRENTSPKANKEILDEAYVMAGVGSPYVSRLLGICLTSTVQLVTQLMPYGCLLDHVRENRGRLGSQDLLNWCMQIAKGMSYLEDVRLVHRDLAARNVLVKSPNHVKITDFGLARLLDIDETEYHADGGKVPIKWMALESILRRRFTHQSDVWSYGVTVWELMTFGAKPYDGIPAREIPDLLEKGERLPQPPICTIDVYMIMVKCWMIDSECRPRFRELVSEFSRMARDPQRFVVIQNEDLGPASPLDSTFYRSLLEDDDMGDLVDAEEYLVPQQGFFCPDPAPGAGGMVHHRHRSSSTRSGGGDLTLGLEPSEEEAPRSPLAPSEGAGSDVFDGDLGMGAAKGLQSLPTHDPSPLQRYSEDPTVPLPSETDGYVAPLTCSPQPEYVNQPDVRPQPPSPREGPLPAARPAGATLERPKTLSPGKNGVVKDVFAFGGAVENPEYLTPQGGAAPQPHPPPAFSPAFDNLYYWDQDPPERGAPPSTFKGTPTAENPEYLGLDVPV

SMILES: COc1c(C(C)C)cc(/C=C2/C(=O)Nc3cc(NC(C)=O)ccc32)cc1C(C)C [Example 3, N-[3-(3,5-Diisopropyl-4-methoxybenzylidene)-2-oxo-2,3-dihydro-1H-indol-6-yl]-acetamide]
- IC50: 6.4 µM

SMILES: COc1ccc(/C=C2/C(=O)Nc3ncccc32)cc1C1CCCCC1 [Example 72, 3-(3-Cyclohexyl-4-methoxybenzylidene)-1,3-dihydropyrrolo[2,3-b]pyridin-2-one]
- IC50: > 100 µM

SMILES: COc1ccc(/C=C2\C(=O)Nc3cccc(C)c32)cc1C1CCCCC1 [Example 68, 3-(3-Cyclohexyl-4-methoxybenzylidene)-4-methyl-1,3-dihydroindol-2-one]
- IC50: > 100 µM

SMILES: CC(=O)Nc1ccc2c(c1)NC(=O)/C2=C/c1ccc(OCCN2CCOCC2)c(C2CCCCC2)c1 [Example 16, N-{3-[3-Cyclohexyl-4-(2-morpholin-4-ylethoxy)-benzylidene]-2-oxo-2,3-dihydro-1H-indol-6-yl}-acetamide]
- IC50: 9.9 µM

SMILES: CC1(C)CCc2cc(/C=C3/C(=O)Nc4ccc(Cl)cc43)ccc2O1 [Example 15, 5-Chloro-3-(2,2-dimethyl-chroman-6-ylmethylene)-1,3-dihydroindol-2-one]
- IC50: 19 µM

SMILES: Cc1cc(CCC(=O)O)c(/C=C2\C(=O)Nc3ccc(Cl)cc32)[nH]1 [Example 111, 3-[2-(5-Chloro-2-oxo-1,2-dihydroindol-3-ylidenemethyl)-5-methyl-1H-pyrrol-3-yl]propionic acid]
- IC50: > 100 µM

SMILES: COc1c(C(C)C)cc(/C=C2/C(=O)Nc3ccc(Br)cc32)cc1C(C)C [Example 54, 5-Bromo-3-(3,5-diisopropyl-4-methoxybenzylidene)-1,3-dihydroindol-2-one]
- IC50: 85.6 µM

SMILES: COc1c(C(C)C)cc(/C=C2/C(=O)Nc3cc(NC(=O)OC(C)(C)C)ccc32)cc1C(C)C [Example 52, [3-(3,5-Diisopropyl-4-methoxybenzylidene)-2-oxo-2,3-dihydro-1H-indol-6-yl]-carbamic acid tert-butyl ester]
- IC50: 72.8 µM

SMILES: Cc1cccc2c1/C(=C/c1cc3ccccc3[nH]1)C(=O)N2 [Example 166, 3-(1H-indol-2-ylmethylene)-4-methyl-1,3-dihydro-indol-2-one]
- IC50: > 100 µM

SMILES: COc1ccc2c(c1)/C(=C\c1cc(C(C)C)c(OC)c(C(C)C)c1)C(=O)N2 [Example 17, 3-(3,5-Diisopropyl-4-methoxybenzylidene)-5-methoxy-1,3-dihydroindol-2-one]
- IC50: 7.8 µM

SMILES: COc1ccc(/C=C2/C(=O)Nc3ccc(Cl)cc32)cc1-c1ccccc1 [Example 67, 5-Chloro-3-(6-methoxybiphenyl-3-ylmethylene)-1,3-dihydroindol-2-one]
- IC50: > 100 µM

SMILES: COc1ccc(/C=C2/C(=O)Nc3ncccc32)cc1-c1ccccc1 [Example 71, 3-(6-Methoxybiphenyl-3-ylmethylene)-1,3-dihydropyrrolo[2,3-b]pyridin-2-one]
- IC50: > 100 µM

SMILES: COc1cccc(-c2cc(OC)c(OC)cc2/C=C2/C(=O)Nc3ccc(Cl)cc32)c1 [Example 61, 5-Chloro-3-(4,5-3′-Trimethoxybiphenyl-2-ylmethylene)-1,3-dihydroindol-2-one]
- IC50: > 100 µM

SMILES: COc1ccc(/C=C2/C(=O)Nc3ccccc32)cc1-c1ccccc1 [Example 65, 3-(6-Methoxybiphenyl-3-ylmethylene)-1,3-dihydroindol-2-one]
- IC50: > 100 µM

SMILES: COc1c(C(C)C)cc(/C=C2/C(=O)Nc3ccc(C(C)=O)cc32)cc1C(C)C [Example 5, 5-Acetyl-3-(3,5-diisopropyl-4-methoxybenzylidene)-1,3dihydroindol-2-one]
- IC50: 6.5 µM

SMILES: COc1c(C)cc(/C=C2/C(=O)Nc3ncccc32)cc1C [Example 56, 3-(4-Methoxy-3,5-dimethylbenzylidene)-1,3-dihydropyrrolo[2,3-b]pyridin-2-one]
- IC50: 96.2 µM

SMILES: COc1cc(/C=C2/C(=O)Nc3ccccc32)c(-c2ccc3ccccc3c2)cc1OC [Example 62, 3-(4,5-Dimethoxy-2-naphthalen-2-ylbenzylidene)-1,3-dihydroindol-2-one]
- IC50: > 100 µM

SMILES: CC(=O)Nc1ccc2c(c1)NC(=O)/C2=C/c1ccc(OCCN2CCOCC2)c(-c2cccs2)c1 [Example 40, N-{3-[4-(2-Morpholin-4-ylethoxy)-3-thiophen-2-ylbenzylidene]-2-oxo-2,3-dihydro-1H-indol-6-yl}-acetamide]
- IC50: 36.6 µM

SMILES: COc1cc(C)c(/C=C2/C(=O)Nc3ccc(Br)cc32)cc1C(C)C [Example 36, 5-Bromo-3-(5-isopropyl-4-methoxy-2-methyl-benzylidene)-1,3-dihydroindol-2-one]
- IC50: 20.7 µM

SMILES: COc1c(C(C)C)cc(/C=C2/C(=O)Nc3cc(N)ccc32)cc1C(C)C [Example 32, 6-Amino-3-(3,5-diisoprotyl-4-methoxy-benzylidene)-1,3-dihydroindol-2-one]
- IC50: 90.2 µM

SMILES: COc1c(C(C)C)cc(/C=C2/C(=O)Nc3cc(F)ccc32)cc1C(C)C [Example 22, 3-(3,5-Diisopropyl-4-methoxybenzylidene)-6-fluoro-1,3-dihydroindol-2-one]
- IC50: 12.4 µM

SMILES: O=C1Nc2ccccc2/C1=C\c1ccc2c(c1)CCO2 [Example 66, 3-(2,3-Dihydrobenzofuran-5-ylmethylene)-1,3-dihydroindol-2-one]
- IC50: > 100 µM

SMILES: Cc1cccc2c1/C(=C/c1ccc3c(c1)CCC(C)(C)O3)C(=O)N2 [Example 41, 3-(2,2-Dimethylchroman-6-ylmethylene)-4-methyl-1,3-dihydroindol-2-one]
- IC50: 39.8 µM

SMILES: COC(=O)c1ccc2c(c1)/C(=C\c1cc(C(C)C)c(OC)c(C(C)C)c1)C(=O)N2 [Example 6, 3-(3,5-Diisopropyl-4-methoxybenzylidene)-2-oxo-2,3-dihydro-1H-indole-5-carboxylic acid methyl ester]
- IC50: 15.3 µM

SMILES: COc1ccc(/C=C2/C(=O)Nc3ccccc32)cc1C1CCCC1 [Example 10, 3-(3-Cyclopentyl-4-methoxybenzylidene)-1,3-dihydroindol-2-one]
- IC50: 45.8 µM

SMILES: CCOC(=O)c1c(C)[nH]c(/C=C2\C(=O)Nc3cc(-c4ccc(F)cc4)ccc32)c1CCC(=O)O [Example 108, 4-(2-Carboxyethyl)-5-[6-(4-fluorophenyl)-2-oxo-1,2-dihydro-indol-3-ylidenemethyl]-2-methyl-1H-pyrrole-3-carboxylic acid ethyl ester]
- IC50: > 100 µM

SMILES: O=C1Nc2ncccc2/C1=C\c1ccc2c(c1)CCO2 [Example 73, 3-(2,3-Dihydrobenzofuran-5-ylmethylene)-1,3-dihydropyrrolo[2,3-b]pyridin-2-one]
- IC50: > 50 µM

SMILES: COc1ccc(/C=C2/C(=O)Nc3ccc(Cl)cc32)cc1-c1cccnc1 [Example 60]
- IC50: > 100 µM

SMILES: COc1ccc(/C=C2/C(=O)Nc3ccccc32)cc1C(C)C [Example 7, 3-(3-Isopropyl-4-methoxybenzylidene)-1,3-dihydroindol-2-one]
- IC50: > 100 µM

SMILES: O=C1Nc2ccc(F)cc2/C1=C\c1ccc2c(c1)CCO2 [Example 42, 3-(2,3-Dihydrobenzofuran-5-ylmethylene)-5-fluoro-1,3-dihydroindol-2-one]
- IC50: 47.5 µM

SMILES: O=C1Nc2ccc(Br)cc2/C1=C/c1cc2ccccc2[nH]1 [Example 165, 5-Bromo-3-(1H-indol-2-ylmethylene)-1,3-dihydro-indol-2-one]
- IC50: > 100 µM

SMILES: COc1c(C(C)C)cc(/C=C2/C(=O)Nc3ncccc32)cc1C(C)C [Example 74, 3-(3,5-Diisopropyl-4-methoxybenzylidene)-1,3-dihydropyrrolo[2,3-b]pyridin-2-one]
- IC50: > 100 µM

SMILES: CC1(C)CCc2cc(C=C3C(=O)Nc4ccc(Br)cc43)ccc2O1 (racemic) [Example 34, 5-Bromo-3-(2,2-dimethylchroman-6-ylmethylene)-1,3-dihydroindol-2-one]
- IC50: > 100 µM

SMILES: COc1ccc(/C=C2/C(=O)Nc3ccc(Cl)cc32)cc1-c1cccs1 [Example 59, 5-chloro-3-(4-Methoxy-3-thiophen-2-ylbenzylidene)-1,3-dihydroindol-2-one]
- IC50: > 100 µM

SMILES: COc1ccc(/C=C2/C(=O)Nc3ncccc32)cc1C1CCCC1 [Example 47, 3-(3-Cyclopentyl-4-methoxybenzylidene)-1,3-dihydropyrrolo[2,3-b]pyridin-2-one]
- IC50: 60.6 µM

SMILES: Cc1cc(CCC(=O)O)c(/C=C2\C(=O)Nc3cc(-c4ccc(F)cc4)ccc32)[nH]1 [Example 107, 3-{2-[6-(4-Fluorophenyl)-2-oxo-1,2-dihydroindol-3-ylidenemethyl]-5-methyl-1H-pyrrol-3-yl}propionic acid]
- IC50: > 100 µM

SMILES: CCOc1cccc(-c2cc(OC)c(OC)cc2/C=C2/C(=O)Nc3ccccc32)c1 [Example 58, 3-(3′-Ethoxy-4,5-dimethoxybiphenyl-2-ylmethylene)-1,3-dihydroindol-2-one]
- IC50: > 100 µM

SMILES: COc1ccc(/C=C2/C(=O)Nc3ccc(Cl)cc32)cc1C1CCCCC1 [Example 51, 5-Chloro-3-(3-cyclohexyl-4-methoxybenzylidene)-1,3-dihydroindol-2-one]
- IC50: 71.8 µM

SMILES: COc1cc(C=C2C(=O)Nc3ccccc32)c(-c2ccccc2OC)cc1OC [Example 49, 3-(4,5,2′-Trimethoxybiphenyl-2-ylmethylene)-1,3-dihydroindol-2-one]
- IC50: 65.5 µM

SMILES: COc1ccc(C=C2C(=O)Nc3ccccc32)cc1-c1cccc(NC(C)=O)c1 [Example 29, N-[2′-Methoxy-5′-(2-oxo-1,2-dihydroindol-3-ylidenemethyl)-biphenyl-3-yl]-acetamide]
- IC50: 17.1 µM

SMILES: CC(C)c1cc(/C=C2/C(=O)Nc3ccc(Br)cc32)cc(C(C)C)c1OCCN1CCOCC1 [Example 57, 5-Bromo-3-[3,5-diisopropyl-4-(2-morpholin-4-ylethoxy)benzylidene]-1,3-dihydroindol-2-one]
- IC50: > 100 µM

SMILES: COc1ccc(C=C2C(=O)Nc3cc(NC(C)=O)ccc32)cc1-c1cccc(NC(C)=O)c1 (mixture of isomers) [Example 63, N-[3-(3′-Acetylamino-6-methoxybiphenyl-3-ylmethylene)-2-oxo-2,3-dihydro-1H-indol-6-yl]-acetamide]
- IC50: > 100 µM
